Measured values from US20210395239A1 (Hoffmann-La Roche Inc., priority 2018, published 2021).

The compounds below were run against T1, hTLR9 (Homo sapiens, UniProt Q9NR96) (assay: HEK293-Blue-hTLR-9 cells assay (SEAP reporter, ODN2006 stimulation)). Conditions: HEK293-Blue-hTLR9 cells, ODN2006, 20 hrs; read-out: HEK/hTLR9 IC50.
T1 sequence (Q9NR96 26-1032): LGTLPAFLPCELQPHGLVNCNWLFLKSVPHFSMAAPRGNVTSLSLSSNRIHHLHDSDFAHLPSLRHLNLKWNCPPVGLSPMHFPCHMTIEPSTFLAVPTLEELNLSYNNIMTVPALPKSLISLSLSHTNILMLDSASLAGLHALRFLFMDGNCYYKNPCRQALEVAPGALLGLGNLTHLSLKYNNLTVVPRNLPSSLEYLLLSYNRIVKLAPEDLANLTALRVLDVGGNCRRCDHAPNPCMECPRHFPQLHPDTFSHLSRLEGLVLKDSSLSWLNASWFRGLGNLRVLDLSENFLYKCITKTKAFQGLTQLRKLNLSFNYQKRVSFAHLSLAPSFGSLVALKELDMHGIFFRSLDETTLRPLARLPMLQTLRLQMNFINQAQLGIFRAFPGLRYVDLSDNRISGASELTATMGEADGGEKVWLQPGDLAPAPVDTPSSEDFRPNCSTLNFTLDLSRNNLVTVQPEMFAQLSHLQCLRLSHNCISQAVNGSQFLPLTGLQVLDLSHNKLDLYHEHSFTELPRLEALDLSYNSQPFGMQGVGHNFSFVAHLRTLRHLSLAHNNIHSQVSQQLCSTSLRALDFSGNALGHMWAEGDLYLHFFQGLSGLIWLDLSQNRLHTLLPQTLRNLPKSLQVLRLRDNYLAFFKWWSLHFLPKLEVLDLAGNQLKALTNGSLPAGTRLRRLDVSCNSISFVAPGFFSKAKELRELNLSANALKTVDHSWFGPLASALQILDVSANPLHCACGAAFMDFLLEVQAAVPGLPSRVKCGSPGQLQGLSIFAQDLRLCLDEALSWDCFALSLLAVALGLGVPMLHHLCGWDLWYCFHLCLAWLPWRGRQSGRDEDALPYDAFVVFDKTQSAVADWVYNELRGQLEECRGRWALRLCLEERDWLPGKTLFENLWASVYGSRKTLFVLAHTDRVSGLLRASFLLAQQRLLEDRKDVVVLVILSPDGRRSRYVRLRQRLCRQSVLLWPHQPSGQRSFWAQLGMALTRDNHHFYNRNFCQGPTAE
Format: cell-based
Set-up: host or cells: HEK293 (HEK-Blue hTLR9)
Method in brief: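 Antagonism read as lowered SEAP reporter absorbance (620–655 nm, QUANTI-Blue, 2 h, 37 °C) in supernatants. Before that, ODN2006-stimulated HEK293-Blue cells stably expressing human TLR9 were exposed to compound dilutions at 1% final DMSO for 20 h at 37 °C.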
Work on `C[C@@H]1CN(c2ccc(C#N)c3ncccc23)C[C@H](CN2CCN(c3cc(N4CCNCC4)ccn3)CC2)O1` [Example 9, 5-[(2R,6S)-2-methyl-6-[[4-(4-piperazin-1-yl-2-pyridyl)piperazin-1-yl]methyl]morpholin-4-yl]quinoline-8-carbonitrile] yielded an IC50 of 32 nM. `C[C@@H]1CN(c2ccc(C#N)c3ncccc23)C[C@H](CN2CCN(c3cccc(N4CCNCC4)n3)CC2)O1` [Example 10, 5-[(2R,6S)-2-methyl-6-[[4-(6-piperazin-1-yl-2-pyridyl)piperazin-1-yl]methyl]morpholin-4-yl]quinoline-8-carbonitrile] gave an IC50 of 105 nM. `C[C@@H]1CN(c2ccc(C#N)c3ncccc23)C[C@H](CN2CCC(C#N)(c3ccc(N4CCNCC4)cc3)CC2)O1` [Example 11, 5-[(2S,6R)-2-[[4-cyano-4-(4-piperazin-1-ylphenyl)-1-piperidyl]methyl]-6-methyl-morpholin-4-yl]quinoline-8-carbonitrile] showed an IC50 of 92 nM. `C[C@@H]1CN(c2ccc(C#N)c3ncccc23)C[C@H](CN2CCN(c3cnc(N4CCNCC4)nc3)CC2)O1` [Example 12, 5-[(2R,6S)-2-methyl-6-[[4-(2-piperazin-1-ylpyrimidin-5-yl)piperazin-1-yl]methyl]morpholin-4-yl]quinoline-8-carbonitrile] showed an IC50 of 32 nM. Compound `C[C@@H]1CN(c2ccc(C#N)c3ncccc23)C[C@H](CN2CCN(c3ccc(N4CCNCC4)nc3)CC2)O1` [Example 13, 5-[(2R,6S)-2-methyl-6-[[4-(6-piperazin-1-yl-3-pyridyl)piperazin-1-yl]methyl]morpholin-4-yl]quinoline-8-carbonitrile] has an IC50 of 142 nM. `C[C@@H]1CN(c2ccc(C#N)c3ncccc23)C[C@H](CN2CCN(c3nccc(N4CCNCC4)n3)CC2)O1` [Example 14, 5-[(2R,6S)-2-methyl-6-[[4-(4-piperazin-1-ylpyrimidin-2-yl)piperazin-1-yl]methyl]morpholin-4-yl]quinoline-8-carbonitrile] showed an IC50 of 32 nM. `C[C@@H]1CN(c2ccc(C#N)c3ncccc23)C[C@H](CN2CCN(c3ccnc(N4CCNCC4)n3)CC2)O1` [Example 15, 5-[(2R,6S)-2-methyl-6-[[4-(2-piperazin-1-ylpyrimidin-4-yl)piperazin-1-yl]methyl]morpholin-4-yl]quinoline-8-carbonitrile] was tested, and the IC50 was 36 nM. Compound `C[C@@H]1CN(c2ccc(C#N)c3ncccc23)C[C@H](CN2CCN(c3ncc(N4CCNCC4)cn3)CC2)O1` [Example 17, 5-[(2R,6S)-2-methyl-6-[[4-(5-piperazin-1-ylpyrimidin-2-yl)piperazin-1-yl]methyl]morpholin-4-yl]quinoline-8-carbonitrile] has an IC50 of 186 nM. With `C[C@@H]1CN(c2ccc(C#N)c3ncccc23)C[C@H](CN2CCN(c3cc(N4CCNCC4)ncn3)CC2)O1` [Example 18, 5-[(2R,6S)-2-methyl-6-[[4-(6-piperazin-1-ylpyrimidin-4-yl)piperazin-1-yl]methyl]morpholin-4-yl]quinoline-8-carbonitrile] the IC50 was 52 nM. Work on `C[C@@H]1CN(c2ccc(C#N)c3ncccc23)C[C@H](CN2CCN(c3ccc([C@@H]4CNCCO4)cc3)CC2)O1` [Example 19, 5-[(2R,6S)-2-methyl-6-[[4-[4-[(2R)-morpholin-2-yl]phenyl]piperazin-1-yl]methyl]morpholin-4-yl]quinoline-8-carbonitrile] yielded an IC50 of 91 nM. For `C[C@@H]1CN(c2ccc(C#N)c3ncccc23)C[C@H](CN2CCN(c3ccc([C@H]4CNCCO4)cc3)CC2)O1` [Example 20, 5-[(2R,6S)-2-methyl-6-[[4-[4-[(2S)-morpholin-2-yl]phenyl]piperazin-1-yl]methyl]morpholin-4-yl]quinoline-8-carbonitrile], the IC50 was 96 nM. `C[C@@H]1CN(c2ccc(C#N)c3ncccc23)C[C@H](CN2CCN(c3cc(N4CCN(C)CC4)ncn3)CC2)O1` [Example 21, 5-[(2R,6S)-2-methyl-6-[[4-[6-(4-methylpiperazin-1-yl)pyrimidin-4-yl]piperazin-1-yl]methyl]morpholin-4-yl]quinoline-8-carbonitrile] gave an IC50 of 219 nM.
